Biological target: T1, hepatocyte nuclear factor 4α (HNF4α) (Homo sapiens, UniProt P41235)
T1 sequence (P41235 147-377): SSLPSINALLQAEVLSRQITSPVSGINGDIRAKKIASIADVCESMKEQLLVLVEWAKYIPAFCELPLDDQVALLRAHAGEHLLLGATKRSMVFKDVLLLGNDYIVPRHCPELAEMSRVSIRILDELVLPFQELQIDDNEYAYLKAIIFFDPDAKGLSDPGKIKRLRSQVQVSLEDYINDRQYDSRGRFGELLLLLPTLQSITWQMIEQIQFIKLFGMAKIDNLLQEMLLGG
Test: intrinsic tyrosine/tryptophan fluorescence quenching titration of purified LBD
Type: binding

## COc1cc(C)c(C(C)C)cc1S(=O)(=O)N(CC(O)Cn1nnnc1-c1ccccn1)c1ccccc1C (racemic) [compound 33, N-(2-Hydroxy-3-(5-(pyridin-2-yl)-1H-tetrazol-1-yl)propyl)-5-isopropyl-2-methoxy-4-methyl-N-(o-tolyl)benzenesulfonamide]
  Kd: 312 nM
